Reference: patent publication US12024498B2, “Radical compounds and methods of using thereof” (OHIO STATE INNOVATION FOUNDATION, priority 2017, dated 2024)
Read-outs that look alike come from different tables or passages of the source.

Biological target: 13C,15N-wt-huPrP23-144 fibrils (Homo sapiens, UniProt P04156)
[1] = 12 mM biradical in 6:3:1 d8-glycerol/D2O/H2O, 12 kHz MAS

Sequence of 13C,15N-wt-huPrP23-144 fibrils (P04156 23-144 limits assumed): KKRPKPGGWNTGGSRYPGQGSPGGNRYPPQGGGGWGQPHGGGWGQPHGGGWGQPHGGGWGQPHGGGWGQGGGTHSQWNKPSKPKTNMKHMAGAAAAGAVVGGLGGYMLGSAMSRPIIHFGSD

Substance: TOAC-TOAC-Ser [TTS]
- Optimal recycle delay (12 mM biradical in 6:3:1 d8-glycerol/D2O/H2O): 1.52 s
- 1H T1 [1]: 1.29 s
- εDNP [1]: 18-25
- τDNP [1]: 1.21 s
- τDNP (12 mM biradical, huPrP23-144 fibril samples): 2 s
